Experiments:
Assay in all cases: relative viability (nuclei count vs DMSO), 5 days (fraction); higher = more cells survive
CAP-232 = compound: C[C@H]([C@@H](C(=O)N)NC(=O)[C@@H]1CSSC[C@@H](C(=O)N[C@H](C(=O)N[C@@H](C(=O)N[C@H](C(=O)N1)CCCCN)CC2=CNC3=CC=CC=C32)CC4=CC=C(C=C4)O)NC(=O)[C@@H](CC5=CC=CC=C5)N)O [CAP-232]
Procedure, shortened: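 Following overnight incubation at 37 °C, lung cancer cell lines in 1536-well plates were pinned with five library-drug doses (not always all listed) in √10 steps on vehicle-anchored plates. The cells then spent 5 days without medium change before a combined fix, permeabilisation and Hoechst stain, 4× imaging and MetaXpress nuclear counts. Viability is the treated-to-vehicle ratio of nuclei, taken as the median across plates. Only plates with control CV below 25% and at least one doubling passed.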

CAP-232 + Crizotinib = compound: C[C@H]([C@@H](C(=O)N)NC(=O)[C@@H]1CSSC[C@@H](C(=O)N[C@H](C(=O)N[C@@H](C(=O)N[C@H](C(=O)N1)CCCCN)CC2=CNC3=CC=CC=C32)CC4=CC=C(C=C4)O)NC(=O)[C@@H](CC5=CC=CC=C5)N)O [CAP-232] + C[C@@H](Oc1cc(-c2cnn(C3CCNCC3)c2)cnc1N)c1c(Cl)ccc(F)c1Cl [Crizotinib] (partner 1 µM)
Procedure, shortened: (§1)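 Lung cancer cell lines were pin-tool dosed in 1536-well plates on the day after seeding, with either a lone drug or a fixed anchor-drug dose plus five library-drug doses (not always all listed) in √10 steps. Nuclei were counted on 4× images after 5 days. Relative viability is the ratio of treated-well to vehicle-well nuclei counts, with each value a median of duplicate plates.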

CAP-232 + Alpelisib = compound: C[C@H]([C@@H](C(=O)N)NC(=O)[C@@H]1CSSC[C@@H](C(=O)N[C@H](C(=O)N[C@@H](C(=O)N[C@H](C(=O)N1)CCCCN)CC2=CNC3=CC=CC=C32)CC4=CC=C(C=C4)O)NC(=O)[C@@H](CC5=CC=CC=C5)N)O [CAP-232] + Cc1nc(NC(=O)N2CCC[C@H]2C(N)=O)sc1-c1ccnc(C(C)(C)C(F)(F)F)c1 [Alpelisib] (partner 2 µM)
Procedure, shortened: as §1

CAP-232 + Dasatinib = compound: C[C@H]([C@@H](C(=O)N)NC(=O)[C@@H]1CSSC[C@@H](C(=O)N[C@H](C(=O)N[C@@H](C(=O)N[C@H](C(=O)N1)CCCCN)CC2=CNC3=CC=CC=C32)CC4=CC=C(C=C4)O)NC(=O)[C@@H](CC5=CC=CC=C5)N)O [CAP-232] + Cc1nc(Nc2ncc(C(=O)Nc3c(C)cccc3Cl)s2)cc(N2CCN(CCO)CC2)n1 [Dasatinib] (partner 0.075 µM)
Procedure, shortened: as §1

CAP-232 + Olaparib = compound: C[C@H]([C@@H](C(=O)N)NC(=O)[C@@H]1CSSC[C@@H](C(=O)N[C@H](C(=O)N[C@@H](C(=O)N[C@H](C(=O)N1)CCCCN)CC2=CNC3=CC=CC=C32)CC4=CC=C(C=C4)O)NC(=O)[C@@H](CC5=CC=CC=C5)N)O [CAP-232] + O=C(c1cc(Cc2n[nH]c(=O)c3ccccc23)ccc1F)N1CCN(C(=O)C2CC2)CC1 [Olaparib] (partner 8 µM)
Procedure, shortened: as §1

Row | Cell Line | relative viability (CAP-232; 0.4 µM) | relative viability (CAP-232; 1.265 µM) | relative viability (CAP-232; 4 µM) | relative viability (CAP-232; 12.65 µM) | relative viability (CAP-232 + Crizotinib; first compound 0.4 µM) | relative viability (CAP-232 + Crizotinib; first compound 1.265 µM) | relative viability (CAP-232 + Crizotinib; first compound 4 µM) | relative viability (CAP-232 + Crizotinib; first compound 12.65 µM) | relative viability (CAP-232 + Alpelisib; first compound 0.4 µM) | relative viability (CAP-232 + Alpelisib; first compound 1.265 µM) | relative viability (CAP-232 + Alpelisib; first compound 4 µM) | relative viability (CAP-232 + Alpelisib; first compound 12.65 µM) | relative viability (CAP-232 + Dasatinib; first compound 0.4 µM) | relative viability (CAP-232 + Dasatinib; first compound 1.265 µM) | relative viability (CAP-232 + Dasatinib; first compound 4 µM) | relative viability (CAP-232 + Dasatinib; first compound 12.65 µM) | relative viability (CAP-232 + Olaparib; first compound 0.4 µM) | relative viability (CAP-232 + Olaparib; first compound 1.265 µM) | relative viability (CAP-232 + Olaparib; first compound 4 µM) | relative viability (CAP-232 + Olaparib; first compound 12.65 µM)
1 | HCC-15 | 1.15 | 1.01 | 1.14 | 0.874 | 0.807 | 0.816 | 0.924 | 0.825 | 0.935 | 0.878 | 0.86 | 0.824 | 0.629 | 0.601 | 0.693 | 0.262 | 0.65 | 0.711 | 0.737 | 0.55
2 | HCC-44 | 1.11 | 0.988 | 0.963 | 0.978 | 0.866 | 0.812 | 0.863 | 0.846 | 0.898 | 0.768 | 0.843 | 0.75 |  |  |  |  | 0.99 | 0.975 | 0.943 | 1.04
3 | HCC-78 | 1.16 | 0.947 | 1.14 | 0.992 | 0.367 | 0.34 | 0.251 | 0.323 | 0.317 | 0.371 | 0.312 | 0.819 | 0.431 | 0.392 | 0.523 | 0.363 | 0.852 | 0.863 | 1.08 | 0.924
4 | HCC-366 | 0.988 | 0.964 | 1.04 | 1.09 | 0.486 | 0.543 | 0.623 | 0.448 | 0.488 | 0.337 | 0.521 | 0.243 | 0.71 | 0.568 | 0.771 | 0.685 | 0.4 | 0.383 | 0.289 | 0.299
5 | HCC-827 | 1.07 | 1.05 | 1.06 | 0.997 | 0.932 | 1.02 | 0.784 | 0.963 | 0.913 | 0.925 | 0.967 | 0.919 | 0.312 | 0.302 | 0.312 | 0.23 | 0.699 | 0.627 | 0.622 | 0.672
6 | HOP-62 | 0.998 | 0.957 | 1.1 | 0.992 | 1 |  | 1.05 | 0.729 | 0.967 |  | 1.17 | 1.29 | 0.703 | 0.667 | 0.655 | 0.547 | 1.08 | 0.388 | 0.604 | 0.709
7 | IA-LM | 1.02 | 0.911 | 1.07 | 0.508 | 0.852 | 0.928 | 0.892 | 0.242 | 0.881 | 0.742 | 0.629 | 0.296 |  |  |  |  | 0.784 | 0.86 | 0.993 | 0.405
8 | LC-2-ad | 1.17 | 0.95 | 1.07 | 1.03 | 0.436 | 0.464 | 0.451 | 0.391 | 0.931 | 0.823 | 0.804 | 0.824 | 0.907 | 0.525 | 0.547 | 0.26 | 0.726 | 0.738 | 0.768 | 0.7
9 | LCLC-97TM1 | 1.02 | 0.943 | 0.986 | 0.965 | 0.494 | 0.347 | 0.28 | 0.315 | 0.252 | 0.228 | 0.285 | 0.244 | 0.896 | 0.889 | 0.82 | 0.851 | 0.418 | 0.421 | 0.346 | 0.438
10 | NCI-H522 | 0.967 | 0.982 | 1.01 | 0.916 |  |  |  |  |  |  |  |  | 1.1 | 0.73 | 0.914 | 0.735 | 0.78 | 0.587 | 0.638 | 0.789
11 | NCI-H1395 | 1.05 | 0.846 | 0.995 | 0.925 |  |  |  |  | 0.888 | 1.08 | 0.912 | 0.848 | 0.413 | 0.445 | 0.426 | 0.388 | 0.436 |  | 0.462 | 0.264
12 | NCI-H1563 | 0.987 | 0.927 | 0.95 | 0.657 | 0.965 | 0.911 | 0.835 | 0.777 | 0.92 | 0.955 | 0.908 | 0.626 | 0.449 | 0.448 | 0.477 | 0.432 |  |  |  | 
13 | NCI-H1650 | 0.986 | 0.849 | 0.932 | 0.27 | 0.98 | 0.963 | 0.966 | 0.627 |  |  |  |  | 0.344 | 0.27 | 0.282 | 0.231 | 1.04 | 0.799 | 0.836 | 0.493
14 | NCI-H1703 | 0.854 | 0.917 | 0.961 | 0.764 | 0.788 | 0.844 | 0.74 | 0.695 | 0.34 | 0.378 | 0.344 | 0.351 |  |  |  |  | 0.388 | 0.468 | 0.315 | 0.388
15 | NCI-H1793 | 1.01 | 0.911 | 0.869 | 0.917 |  |  |  |  | 0.829 | 0.669 | 0.573 | 0.627 | 0.382 | 0.365 | 0.393 | 0.367 | 0.921 | 0.922 | 1.04 | 0.877
16 | NCI-H2342 | 0.952 | 0.997 | 1.08 | 0.977 |  |  |  |  |  |  |  |  | 0.308 | 0.334 | 0.291 | 0.321 | 0.447 | 0.441 | 0.46 | 0.396
17 | SW 900 | 0.962 | 0.881 | 0.953 | 0.845 |  |  |  |  |  |  |  |  | 0.644 | 0.614 | 0.64 | 0.591 | 0.766 | 0.883 | 0.698 | 0.99

Source: the supplement of paper PMC10307832
